Source: patent US20250257060A1, “OXADIAZOLE COMPOUND, PHARMACEUTICAL COMPOSITION COMPRISING SAME, AND USE THEREOF” (SUZHOU GENHOUSE BIO CO., LTD., priority 2022, published 2025)
Like-named read-outs stand apart in the source and are kept apart here. Blank lines part the entries; values can stand above or below the molecule they belong to.

Assays:
[1] = Phase I metabolic stability in human liver microsomes (HLMs); format: in vitro ADME, humans; details: HLM
Experimental: (§1) Phase I metabolic stability of the test compounds in liver microsomes of CD-1 mice (MLMs), Sprague-Dawley rats (RLMs), beagle dogs (DLMs), cynomolgus monkeys (CLMs), and humans (HLMs) was evaluated.
(§2) The animal and human liver microsomes used in the test system were purchased from Xenotech, Corning, or other qualified suppliers and stored in a freezer at a temperature below −60° C. prior to use.
(§3) The test samples and control compounds were separately incubated with animal and human liver microsomes at 37±1° C. for a period of incubation time up to 60 min. The samples were removed at the indicated time points, and the reaction was stopped with acetonitrile or other organic solvents containing an internal standard. After centrifugation, the resulting supernatants were assayed by liquid chromatography-tandem mass spectrometry (LC-MS/MS).
(§4) 73.21 g of dipotassium hydrogenphosphate trihydrate and 10.78 g of potassium dihydrogenphosphate were dissolved in 4000 mL of ultrapure water. The solution was adjusted to pH 7.40±0.10 with 10% phosphoric acid or 1 M potassium hydroxide to make a final concentration of 100 mM.
(§5) The test sample powder was prepared into a stock solution at a certain concentration with DMSO or other organic solvents, which was then further diluted with a proper organic solvent.
(§6) Microsomes of each species were diluted into a 2× working solution with a 100 mM potassium phosphate buffer. The final concentration of the microsomes in the reaction system was 0.5 mg/mL.
(§7) An appropriate amount of nicotinamide adenine dinucleotide phosphate (NADP) and isocitric acid (ISO) powder was weighed out, dissolved in a magnesium chloride solution, and shaken and mixed well. An appropriate amount of isocitrate dehydrogenase (IDH) was added, and the mixture was mixed well by gently turning upside down. The final concentrations in the reaction system were: 1 mM NADP, 1 mM magnesium chloride, 6 mM ISO, and 1 unit/mL IDH.
(§8) Incubation was performed in a 96-well plate. Eight incubation plates were prepared and designated T0, T5, T15, T30, T45, T60, Blank60, and NCF60, respectively. The first 6 plates corresponded to reaction time points of 0, 5, 15, 30, 45, and 60 min, respectively. No test sample or control compound was added to the Blank60 plate, and samples were taken after 60 min of incubation. In the NCF60 plate, incubation was performed for 60 min using the potassium phosphate buffer instead of the NADPH regeneration system solution. Three replicates were made for samples in all conditions.
(§9) The microsomes and the test sample or control compound were mixed, and then the incubation plates Blank60, T5, T15, T30, T45, and T60 except for TO and NCF60 were placed in a 37° C. water bath for pre-incubation for about 10 min. In the incubation plate TO, a stop solution was first added, followed by addition of the NADPH regeneration system working solution, and 98 μL of the potassium phosphate buffer was added to each sample well of the incubation plate NCF60 to initiate the reaction. After the pre-incubations of the incubation plates Blank60, T5, T15, T30, T45, and T60 were completed, 98 μL of the NADPH regeneration system working solution was added to each sample well to initiate the reaction. The reaction temperature was 37±1° C., the final volume of the reaction was 200 μL, and the reaction system included 0.5 mg/mL microsomes, […], 1 mM NADP, 6 mM ISO, and 1 unit/mL IDH.
(§10) At 5 min, 15 min, 30 min, 45 min, and 60 min, a cold stop solution containing an internal standard was added to the reaction plate to stop the reaction.
(§11) All the reaction plates after the reaction was stopped were shaken well and centrifuged at 3220×g at 4° C. for 20 min. After the supernatant was diluted according to a certain proportion, LC-MS/MS analysis was performed.
(§12) Sample analysis was performed by the liquid chromatography-tandem mass spectrometry (LC-MS/MS) method without standard curves and quality control samples. […]

[2] = Phase I metabolic stability in mouse liver microsomes (MLMs); format: in vitro ADME, CD-1 mice; details: MLM
Experimental: as §1, §2, §3, §4, §5, §6, §7, §8, §9, §10, §11, §12

[3] = Pharmacokinetic test in mice (IV and PO); format: in vivo, BALB/c mice; details: for Cmax / AUC(0-inf) / AUC(0-t) / MRT inf / Vd / Tmax: BALB/c, mouse, plasma; for MRT inf: read-out: MRT(0-∞); for Vd: read-out: Vz
Experimental: In this example, the pharmacokinetic behavior of the compounds after intravenous injection (IV) and intragastric (PO) administration in BALB/c mice was tested.
On the day of administration, mice were weighed for actual body weight and the administration volume was calculated. Each compound was tested in two groups with 3 mice in each group, one group administered by single intravenous injection and the other group of mice by single intragastric administration. Whole blood samples were collected via the orbit at prescribed time points (0.25 h, 0.5 h, 1 h, 2 h, 4 h, 8 h, and 24 h after administration). After blood sample collection, the samples were immediately transferred to labeled commercial sample tubes containing K2-EDTA (0.85-1.15 mg), followed by centrifugation (3200×g, 4° C., 10 min) and plasma collection. The plasma was transferred to a pre-cooled centrifuge tube, frozen in dry ice, and stored in an ultra-low temperature freezer at −60° C. or lower until the LC-MS/MS analysis.
Plasma concentrations were determined by a LC-MS/MS method. Plasma drug concentration data for compounds 1 and 2 were processed in a non-compartmental model using WinNonlin Version 6.3 (Pharsight, Mountain View, CA) pharmacokinetic software. The relevant pharmacokinetic parameters were calculated by a linear logarithmic trapezoid method.

[4] = Phase I metabolic stability in rat liver microsomes (RLMs); format: in vitro ADME, Sprague-Dawley rats; details: RLM
Experimental: as §1, §2, §3, §4, §5, §6, §7, §8, §9, §10, §11, §12

[5] = system: acetylation level of α-tubulin in HCT116 cells; assay: Assay on acetylation level of α-tubulin, HCT116 cells; format: cell-based; details: Homo sapiens, HCT-116, 6 h
Experimental: A375/HCT116/HCC827 cells at a logarithmic growth phase were taken, digested with a […] (trypsin), centrifuged, counted, and plated in a 96-well plate at an appropriate cell density (30,000 cells/well) at 100 µL/well, and an appropriate amount of PBS was added around the plate for water sealing. The next day, the cells were treated with the compounds at different concentrations (starting at 100 μM, 5-fold dilution, 9 concentration gradients). After 6 h, the medium was pipetted out and the cells were washed twice with 100 μL of PBST. The cells were then immobilized in 4% paraformaldehyde, and the plate was incubated at room temperature for 20 min. The stationary liquid was discarded and the cells were washed with PBST. 150 μL of special blocking buffer (containing 1% Triton-100) was added to each well for blocking at room temperature for 2 h, and the plate was washed with PBS to remove excess blocking buffer. α-tubulin (DM1A) mouse mAb and acetyl-α-tubulin (Lys40) (D20G3) XP rabbit mAb were diluted at a 1:2000 ratio with a blocking buffer containing 0.033% Triton-100. The dilutions were added to the 96-well plate and the plate was incubated overnight at 4° C. Meanwhile, a blank control group was set. The next day, the plate was washed twice with PBST. Secondary anti-mouse IgG (H+L) (DyLight™ 680 conjugate) and anti-rabbit IgG (H+L) (DyLight™ 800 conjugate) were diluted at a 1:2000 ratio with a blocking buffer containing 0.033% Triton-100. The dilutions were added to a 96-well plate and the plate was incubated at room temperature for 2 h. The plate was washed twice with PBST and once with PBS. Fluorescence signals at 700 nm and 800 nm were detected with a Li-COR Odyssey two-color near-infrared laser imager.

[6] = Brain-to-blood drug concentration ratio of mice; format: in vivo; details: mouse, 5 mg/kg PO
Experimental: On the day of administration, mice were weighed for actual body weight and the administration volume was calculated. In each group of 9 mice, the compound was administered by single intravenous (IV) injection or intragastric (PO) administration. Whole blood samples were collected via the orbit at prescribed time points. After blood sample collection, the samples were immediately transferred to labeled commercial sample tubes containing K2-EDTA (0.85-1.15 mg), followed by centrifugation (3200×g, 4° C., 10 min) and plasma collection. The plasma was transferred to a pre-cooled centrifuge tube, frozen in dry ice, and stored in an ultra-low temperature freezer at −60° C. or lower until the LC-MS/MS analysis. 20 μL of a plasma sample or brain tissue homogenate was taken and 80 μL of an internal standard solution (50 ng/mL solution of propafenone in acetonitrile) was added. The plate was sealed with a film sealer at 165° C., shaken on a micro oscillator (maximum vibration speed) for 10 min, and centrifuged at 4000 rpm for 20 min using a low-speed benchtop centrifuge, 10 μL of supernatant was transferred and 90 μL of acetonitrile was added. The mixture was vortexed and mixed well, and then the plate was sealed with the film sealer at 165° C. After the mixture was vortexed and mixed well, 1 μL of supernatant was taken for LC-MS/MS analysis. Plasma drug concentration data for the compounds were processed in a non-compartmental model using WinNonlin Version 6.3 (Pharsight, Mountain View, CA) pharmacokinetic software. The relevant pharmacokinetic parameters were calculated by a linear logarithmic trapezoid method.
Data processing: brain-to-blood drug concentration ratio of mice at the same time point=drug concentration in brain tissue/drug concentration in plasma

[7] = buffer instead of NADPH regeneration system, 60 min
[8] = human, liver microsomes, pH 7.4
[9] = CD-1, mouse, liver microsomes, pH 7.4
[10] = Sprague-Dawley, rat, liver microsomes, pH 7.4

Remaining rate (NCF = 60 min) [1, 7]: 84.68%
Remaining rate (T = 60 min) ([1]; with NADPH, 60 min): 82.70%
CLint scaled at 1 µM [1, 8]: 6.43 mL/min/kg
half-life at 1 M [1, 8]: 4.51 h
CLint scaled at 1 µM [2, 9]: 41.4 mL/min/kg
half-life at 1 M [2, 9]: 2.2 h
Remaining rate (NCF = 60 min) [2, 7]: 84.39%
Remaining rate (T = 60 min) ([2]; with NADPH, 60 min): 72.27%
Cmax ([3]; po, 10 mg/kg, read-out: C0/Cmax): 12 µM
AUC(0-inf) ([3]; mice, IV 2 mg/kg): 8.78 µM·h
AUC(0-t) ([3]; mice, IV 2 mg/kg): 8.61 µM·h
Cmax ([3]; mice, IV 2 mg/kg (C0)): 5.27 µM
MRT inf ([3]; mice, IV 2 mg/kg): 2.06 h
Vd ([3]; mice, IV 2 mg/kg): 1.01 L/kg
AUC(0-inf) ([3]; mice, PO 10 mg/kg): 63.7 µM·h
AUC(0-t) ([3]; mice, PO 10 mg/kg): 50.5 µM·h
Tmax ([3]; mice, PO 10 mg/kg): 0.5 h
MRT inf ([3]; mice, PO 10 mg/kg): 4.57 h
CLz ([3]; mice, IV 2 mg/kg): 7.82 mL/min/kg
t½z ([3]; mice, IV 2 mg/kg): 1.493 h
F ([3]; mice, PO 10 mg/kg): 117.4%
t½z ([3]; mice, PO 10 mg/kg): 3.323 h
Remaining rate (NCF = 60 min) [4, 7]: 88.49%
Remaining rate (T = 60 min) ([4]; with NADPH, 60 min): 36.99%
CLint scaled at 1 µM [4, 10]: 58.6 mL/min/kg
half-life at 1 M [4, 10]: 0.706 h
Structure (SMILES): O=S1(=O)c2cc(-c3nnc(C(F)F)o3)ccc2CN1C(c1ccccn1)[C@H](O)c1ccccn1 (stereo partly drawn) [Compound 83]

EC50 [5]: 322 nM
Structure (SMILES): O=C(N[C@@H]1CCOC[C@H]1N1Cc2ccc(-c3nnc(C(F)F)o3)cc2S1(=O)=O)C(F)(F)C(F)(F)F [Compound 66]

concentration at 1 h ([6]; brain, 1 h, read-out: Brain drug concentration): 44.8 ng/mL
concentration at 2 h ([6]; brain, 2 h, read-out: Brain drug concentration): 16.2 ng/mL
Kp at 1 h ([6]; brain/plasma, 1 h): 0.03
Kp at 2 h ([6]; brain/plasma, 2 h): 0.02
concentration at 1 h ([6]; plasma, 1 h, read-out: Blood drug concentration): 1400 ng/mL
concentration at 2 h ([6]; plasma, 2 h, read-out: Blood drug concentration): 930 ng/mL
EC50 [5]: 239 nM
Cmax ([3]; po, 5 mg/kg, read-out: C0/Cmax): 5.13 µM
AUC(0-inf) ([3]; mice, IV 1 mg/kg): 1.71 µM·h
AUC(0-t) ([3]; mice, IV 1 mg/kg): 1.7 µM·h
Cmax ([3]; mice, IV 1 mg/kg (C0)): 3.47 µM
MRT inf ([3]; mice, IV 1 mg/kg): 0.542 h
Vd ([3]; mice, IV 1 mg/kg): 1.03 L/kg
AUC(0-inf) ([3]; mice, PO 5 mg/kg): 8.71 µM·h
AUC(0-t) ([3]; mice, PO 5 mg/kg): 8.64 µM·h
Tmax ([3]; mice, PO 5 mg/kg): 0.25 h
MRT inf ([3]; mice, PO 5 mg/kg): 1.47 h
CLz ([3]; mice, IV 1 mg/kg): 19.58 mL/min/kg
t½z ([3]; mice, IV 1 mg/kg): 0.605 h
F ([3]; mice, PO 5 mg/kg): 101.8%
t½z ([3]; mice, PO 5 mg/kg): 1.149 h
Structure (SMILES): O=C(N[C@@H]1CCCC[C@H]1N1Cc2ccc(-c3nnc(C(F)F)o3)cc2S1(=O)=O)N1CCOCC1 [Compound 113]
